In the experiment the target is T1, 5-HT2C receptor (Homo sapiens, UniProt P28335).
T1 construct: β-galactosidase enzyme-complementation fragment (ProLink-type donor); host or cells: U2OS
Nature of the experiment: Functional activity: beta-arrestin2 recruitment to the 5-HT2C receptor in U2OS_HTR2C_β-Arrestin cells (DiscoverX). The experiment is classed as cell-based. The following applies: for % efficacy / Emax: relative efficacy: response as percentage of response to 10 μM 5-HT or maximal effect induced by 5-HT (defined as 100%); for EC50: U2OS_HTR2C_β-Arrestin cells, 1.5 h incubation, chemiluminescent β-galactosidase complementation readout, read-out: Potency (EC50) in functional assay. The method, then: The functional activity of compounds of formula I was assayed by incubation with U2OS_HTR2C_β-Arrestin cells (DiscoverX, 93-0289C3) to induce beta-arrestin2 recruitment to the 5-HT2C receptor. The agonist-induced recruitment and proximity of the receptor and beta-arrestin2 leads to complementation and formation of active β-galactosidase. The enzyme complementation results in enzyme activity, which is measured following the termination of the agonist incubation using DiscoveRx's detection reagent, which contains a chemiluminescent substrate which produces a high intensity signal. Cells were plated and a medium-change to a 1% serum containing medium was performed 24 h later. The next day, test compounds were added and incubated for 1.5 h before addition of detection reagent.
The response produced was measured and compared with the response produced by 10 [mu]M 5-HT or the maximal effect induced by 5-HT (defined as 100%) to which it was expressed as a percentage response (relative efficacy). Dose response curves were constructed using Graphpad Prism (Graph Software Inc.) or using in house adapted software using a 4 parameter dose response model with variable slope (fit=(Bottom+(Top−Bottom)/(1+10^((Log EC50−x)*HillSlope))res=(y−fit)). Results are compiled in the table below.

Structures can show the parent of a compound that is named as a salt.

Consider 33 compounds from patent publication US10118926B2, “Tricyclic quinoline and quinoxaline derivatives” (AbbVie Deutschland GmbH & Co. KG, priority 2012, dated 2018).

T1 sequence (P28335 33-458): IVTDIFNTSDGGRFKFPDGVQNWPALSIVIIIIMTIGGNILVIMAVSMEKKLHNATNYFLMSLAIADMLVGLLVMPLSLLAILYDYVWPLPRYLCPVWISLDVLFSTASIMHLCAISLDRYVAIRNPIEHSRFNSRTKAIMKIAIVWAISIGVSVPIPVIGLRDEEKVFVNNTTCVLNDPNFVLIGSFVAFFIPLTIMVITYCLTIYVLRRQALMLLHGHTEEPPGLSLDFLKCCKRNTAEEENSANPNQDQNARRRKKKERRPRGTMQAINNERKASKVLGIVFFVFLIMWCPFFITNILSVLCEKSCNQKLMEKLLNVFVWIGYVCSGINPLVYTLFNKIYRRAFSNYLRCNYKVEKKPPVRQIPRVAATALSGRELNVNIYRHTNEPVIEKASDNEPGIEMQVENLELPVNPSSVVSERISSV
T1 sequence (P32121 whole entry partner, the tested form may be a part): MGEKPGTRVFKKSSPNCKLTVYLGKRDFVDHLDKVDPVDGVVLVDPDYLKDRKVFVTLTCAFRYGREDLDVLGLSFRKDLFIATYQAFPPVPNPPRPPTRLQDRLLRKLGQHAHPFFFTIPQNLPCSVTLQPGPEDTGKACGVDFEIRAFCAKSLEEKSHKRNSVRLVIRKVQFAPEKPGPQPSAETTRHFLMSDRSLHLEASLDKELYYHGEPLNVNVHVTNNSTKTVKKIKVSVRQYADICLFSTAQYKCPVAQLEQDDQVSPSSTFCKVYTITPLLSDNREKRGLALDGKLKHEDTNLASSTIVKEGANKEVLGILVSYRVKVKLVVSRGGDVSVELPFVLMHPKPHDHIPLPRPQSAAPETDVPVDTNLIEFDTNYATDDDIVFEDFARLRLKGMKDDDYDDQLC

Turning to `CC1(C(F)(F)F)CCN2CCNCc3cccc1c32` (single isomer, unassigned) [Example 8, 8-Methyl-8-(trifluoromethyl)-2,3,4,6,7,8-hexahydro-1H-[1,4]diazepino [6,7,1-ij]quinoline], the “% efficacy” value worked out at 40%.

As for `CC1(C(F)(F)F)CCN2CCNCc3cccc1c32` (single isomer, unassigned) [Example 9, 8-Methyl-8-(trifluoromethyl)-2,3,4,6,7,8-hexahydro-1H-[1,4]diazepino [6,7,1-ij]quinoline], the “% efficacy” value worked out at 61%.

On to `CC1CN2CCNCc3cccc(c32)C1(C)C` (single isomer, unassigned) [Example 27, Enantiomer of 7,8,8-trimethyl-1,2,3,4,7,8-hexahydro-6H-[1,4]diazepino[6,7,1-ij]quinoline]], for which the “% efficacy” value was determined as 87%.

In the case of `CC1CN2CCNCc3cccc(c32)C1(C)C` (single isomer, unassigned) [Example 28, Enantiomer of 7,8,8-trimethyl-1,2,3,4,7,8-hexahydro-6H-[1,4]diazepino[6,7,1-ij]quinoline]], the “% efficacy” value came out at 55%.

Regarding `CCC1(C)CCN2CCNCc3cccc1c32.O=C(O)C(F)(F)F` (single isomer, unassigned) [Example 54, One enantiomer of 8-ethyl-8-methyl-2,3,4,6,7,8-hexahydro-1H-[1,4]diazepino[6,7,1-ij]-quinoline, trifluoroacetic acid], the EC50 was in the range of 200 to 1000 nM and the “% efficacy” value came out at 24%.

With `CCC1(C)CCN2CCNCc3cccc1c32.O=C(O)C(F)(F)F` (single isomer, unassigned) [Example 55, Other enantiomer of 8-ethyl-8-methyl-2,3,4,6,7,8-hexahydro-1H-[1,4]diazepino[6,7,1-ij]quinoline, trifluoroacetic acid], the EC50 was in the range of 200 to 1000 nM and the “% efficacy” value was found to be 26%.

`CC1(C)CCN2CCNCc3cccc1c32` [Example 1, 8,8-Dimethyl-2,3,4,6,7,8-hexahydro-1H-[1,4]diazepino[6,7,1-ij]quinoline] gave an Emax of 71%.

The compound `c1cc2c3c(c1)C1(CCCC1)CCN3CCNC2` [Example 6, 1,2,3,4,6,7-Hexahydrospiro[[1,4]diazepino [6,7,1-ij]quinoline-8,1′-cyclopentane]] yielded an Emax of 63%.

As for `c1cc2c3c(c1)N1CCC[C@@H]1CN3CCNC2` [Example 16, (R)-5,6,7,9,9a,10,11,12-Octahydro-4H-[1,4]diazepino[1,7,6-de]pyrrolo[1,2-a]quinoxaline (2,2,2-trifluoroacetate)], the Emax turned out to be 55%.

Compound `c1cc2c3c(c1)N1CCC[C@H]1CN3CCNC2` [Example 17, (S)-5,6,7,9,9a,10,11,12-Octahydro-4H-[1,4]diazepino[1,7,6-de]pyrrolo[1,2-a]quinoxaline (2,2,2-trifluoroacetate)] gave an Emax of 84%.

As for `CC1(C)CCN2CCNCc3cc(Cl)cc1c32` [Example 19, 10-Chloro-8,8-dimethyl-2,3,4,6,7,8-hexahydro-1H-[1,4]diazepino [6,7,1-ij]quinoline (2,2,2-trifluoroacetate)], the Emax worked out at 25%.

`CC1(C)CCN2CCNCc3ccc(F)c1c32` [Example 22, 9-Fluoro-8,8-dimethyl-2,3,4,6,7,8-hexahydro-1H-[1,4]diazepino[6,7,1-ij]quinoline] had an Emax of 69%.

As for `c1cc2c3c(c1)C1(CCC1)CCN3CCNC2` [Example 25, 1′,2′,3′,4′,6′,7′-Hexahydrospiro[cyclobutane-1,8′-[1,4]diazepino [6,7,1-ij]quinoline], hydrochloride], the Emax was 90%.

As for `Fc1ccc2c3c1C1(CCC1)CCN3CCNC2` [Example 26, 9′-Fluoro-1′,2′,3′,4′,6′,7′-hexahydrospiro[cyclobutane-1,8′-[1,4]diazepino[6,7,1-ij]quinoline], hydrochloride], the Emax was found to be 107%.

As to `c1cc2c3c(c1)N(C1CCC1)CCN3CCNC2` [Example 33, 1-Cyclobutyl-2,3,5,6,7,8-hexahydro-1H-[1,4]diazepino[1,7,6-de]quinoxaline 2,2,2-trifluoroacetate], the EC50 lay in the range of 200 to 1000 nM and the Emax worked out at 78%.

Turning to `c1cc2c3c(c1)N(C1COC1)CCN3CCNC2` [Example 35, 1-(Oxetan-3-yl)-2,3,5,6,7,8-hexahydro-1H-[1,4]diazepino[1,7,6-de]quinoxaline 2,2,2-trifluoroacetate], the EC50 fell in the range of 20 to 200 nM and the Emax came out at 112%.

Consider `c1cc2c3c(c1)N(CC1CC1)CCN3CCNC2` [Example 36, 1-(Cyclopropylmethyl)-2,3,5,6,7,8-hexahydro-1H-[1,4]diazepino[1,7,6-de]quinoxaline], for which the EC50 lay within 200 to 1000 nM and the Emax stood at 31%.

Take `c1cc2c3c(c1)N(CC1CCCC1)CCN3CCNC2` [Example 37, 1-(Cyclopentylmethyl)-2,3,5,6,7,8-hexahydro-1H-[1,4]diazepino[1,7,6-de]quinoxaline]: the EC50 was 200 to 1000 nM and the Emax came to 21%.

As for `c1cc2c3c(c1)N(C1CC1)CCN3CCNC2` [Example 40, 1-Cyclopropyl-2,3,5,6,7,8-hexahydro-1H-[1,4]diazepino[1,7,6-de]quinoxaline], the EC50 was 20 to 200 nM and the Emax stood at 131%.

For the compound `c1cc2c3c(c1)N(C1CCCC1)CCN3CCNC2` [Example 41, 1-Cyclopentyl-2,3,5,6,7,8-hexahydro-1H-[1,4]diazepino[1,7,6-de]quinoxaline], the EC50 was 200 to 1000 nM and the Emax was determined as 75%.

For the compound `CC1CNCc2cccc3c2N1CCN3C1CC1` (stereo not drawn) [Example 42, 1-Cyclopropyl-5-methyl-2,3,5,6,7,8-hexahydro-1H-[1,4]diazepino[1,7,6-de]quinoxaline], the EC50 is less than 20 nM and the Emax was determined as 163%.

Regarding `CC1CNCc2cccc3c2N1CCN3C1CCCC1` (stereo not drawn) [Example 43, 1-Cyclopentyl-5-methyl-2,3,5,6,7,8-hexahydro-1H-[1,4]diazepino[1,7,6-de]quinoxaline], the EC50 lay within 200 to 1000 nM and the Emax is 59%.

Consider `c1cc2c3c(c1)N1CCCCCC1CN3CCNC2` (stereo not drawn) [Example 44, 5,6,7,9,9a,10,11,12,13,14-decahydro-4H-azepino[1,2-a][1,4]diazepino[1,7,6-de]quinoxaline], for which the EC50 fell in the range of 20 to 200 nM and the Emax worked out at 55%.

For `CC1CNCc2cccc3c2N1CC1CCCN31` (stereo not drawn) [Example 45, 7-Methyl-5,6,7,9,9^a,10,11,12-octahydro-4H-[1,4]diazepino[1,7,6-de]pyrrolo[1,2-a]quinoxaline], the EC50 lay in the range of 20 to 200 nM and the Emax is 77%.

In the case of `CC1CNCc2ccc(F)c3c2N1CC1CCCN31` (stereo not drawn) [Example 46, 1-Fluoro-7-methyl-5,6,7,9,9^a,10,11,12-octahydro-4H-[1,4]diazepino[1,7,6-de]pyrrolo[1,2-a]quinoxaline], the EC50 was in the range of 200 to 1000 nM and the Emax was found to be 71%.

On to `c1cc2c3c(c1)C1(CCN3CCNC2)CC1` [Example 47, 1,2,3,4,6,7-Hexahydrospiro[[1,4]diazepino[6,7,1-ij]quinoline-8,1′-cyclopropane]], for which the EC50 is 20 to 200 nM and the Emax was 59%.

For the compound `CC1CNCc2cccc3c2N1CCC31CC1` (stereo not drawn) [Example 48, 4-Methyl-1,2,3,4,6,7-hexahydrospiro[[1,4]diazepino[6,7,1-ij]quinoline-8,1′-cyclopropane]], the EC50 was 20 to 200 nM and the maximal effect (Emax) turned out to be 105%.

As for `CC1(C)CCN2CCNCc3c(F)ccc1c32` [Example 49, 11-Fluoro-8,8-Dimethyl-2,3,4,6,7,8-hexahydro-1H-[1,4]diazepino[6,7,1-ij]quinoline], the EC50 was in the range of 200 to 1000 nM and the Emax amounted to 78%.

With `CC1CNCc2cccc3c2N1CCC3(C)C` (stereo not drawn) [Example 51, 4,8,8-Trimethyl-2,3,4,6,7,8-hexahydro-1H-[1,4]diazepino[6,7,1-ij]quinoline 2,2,2-trifluoroacetate], the EC50 lay in the range of 20 to 200 nM and the Emax was determined as 102%.

As to `CC1CNCc2cccc3c2N1CCC31CCC1` (stereo not drawn) [Example 56, 4-Methyl-1,2,3,4,6,7-hexahydrospiro[[1,4]diazepino[6,7,1-ij]quinoline-8,1′-cyclobutane]], the EC50 was less than 20 nM and the Emax was 124%.

Take `Fc1ccc2c3c1N1CCCC1CN3CCNC2` (stereo not drawn) [Example 57, 1-Fluoro-5,6,7,9,9a,10,11,12-octahydro-4H-[1,4]diazepino[1,7,6-de]pyrrolo[1,2-a]quinoxaline, trifluoroacetic acid]: the EC50 fell in the range of 200 to 1000 nM and the Emax came to 35%.

`Cc1ccc2c3c1N1CCCC1CN3CCNC2` (stereo not drawn) [Example 59, 1-Methyl-5,6,7,9,9a,10,11,12-octahydro-4H-[1,4]diazepino[1,7,6-de]pyrrolo[1,2-a]quinoxaline, trifluoroacetic acid]: the EC50 is 20 to 200 nM and the Emax was determined as 51%.

On to `Cc1ccc2c3c1CNCCN3CCC21CCC1` [Example 66, 11-Methyl-1,2,3,4,6,7-hexahydrospiro[[1,4]diazepino[6,7,1-ij]quinoline-8,1′-cyclobutane], 2,2,2-trifluoroacetic acid], for which the EC50 is 200 to 1000 nM and the Emax was found to be 53%.

The EC50 is the concentration at which the effect is half-maximal. The term Emax denotes the size of the effect at its maximum, as opposed to the concentration needed.
